Experimental data reported in patent publication US20210363254A1, “PHARMACEUTICAL COMBINATIONS” (Novartis AG, priority 2018, published 2021).
Like-named read-outs stand apart in the source and are kept apart here.

Experiments:
[1] = type: in vivo
Description: The endpoint for the primary objective is the incidence of Dose Limiting Toxicities (DLTs) during the first cycle of treatment. Although the primary analysis estimates the MTD based on DLT rate, the final preferred dose determination utilizes additional data beyond cycle 1 DLT rate, including later cycle tolerability, PK, PD and anti-tumor activity.
Therefore, dose limiting hematologic toxicities occurring in cycle 2 were also factored into dose escalation decisions during the course of the study, using a non-binding sensitivity model. Table Ex2.4 summarizes the number of dose limiting toxicities during cycle 1 and dose limiting hematologic toxicities in cycle 2 across all the regimens evaluated in solid tumors.
This study utilizes a Bayesian logistic regression model (BLRM) to support dose escalation and estimate the MTD and/or determine the preferred dose for HDM201. The BLRM with escalation with overdose control (EWOC) enables incorporation of available prior information and updates the model parameters based upon new information about observed dose limiting toxicities (DLT) seen in the clinical study. During the course of the dose escalation for regimen 1A and 1B, DLT incidence has been used to update the model and support the decision for the next dose. When during the course of the study it became apparent that HDM201 induced bone marrow toxicity occurred predominantly during cycle 2, a non-binding sensitivity model including cycle 1 DLT and hematologic dose limiting AEs in cycle 2 (weighting all cytopenias equally) was used to guide dose escalation/RDE determinations. Additionally, decisions were at all times based on a synthesis of relevant data available from all dose levels evaluated in the study including low grade toxicities, PK, and PD data (when available) from evaluable patients.

[2] = type: in vivo, human
Procedure: Pharmacokinetic data have been evaluated throughout the course of the dose escalation. Two HDM201 drug variants have been evaluated during the course of the study (refer to the protocol for further details). […] Furthermore, an integrated analysis of all available HDM201 concentrations was conducted using a population approach. The PK of HDM201 was best described by a 1-compartment PK model with a delayed zero- and first-order absorption process, and a linear clearance. Body weight was identified as a statistically significant covariate on apparent central volume of distribution (Vc/F), in which Vc/F increased with increasing body weight.
(§1) To further support the preferred dose for HDM201, compartmental PK modeling was used to estimate the individual average concentration per cycle for the 9 patients treated at 120 mg on regimen 1B (FIG. 15). For the majority of patients (7 out of 9), the estimated average drug concentrations per cycle were near or above the most conservative average tumor stasis concentration of ˜41 ng/mL per cycle determined from PKPD modeling of preclinical data (human SJSA-1 xenograft rat model).
(§2) Compartmental population PK modeling of NVP-HDM201 was used to estimate the individual average plasma concentration for Cycle 1 and to allow comparison with preclinical average concentration for tumor stasis derived by PK/PD tumor growth modeling. […] The dashed line at concentration of ≈19 ng/mL represents average tumor stasis determined from PK/PD modeling of preclinical data from a liposarcoma (HSAX2655) patient-derived xenograft rat model.

[3] = system: human SJSA-1 (osteosarcoma) xenograft; assay: TGI PK/PD modelling, human SJSA-1 (osteosarcoma) xenograft rat; type: in vivo; conditions: human SJSA-1 xenograft rat; for Average concentration for tumor stasis: TGI PK/PD modelling
Procedure: as §1, §2

[4] = system: human HSAX2655 (liposarcoma) PDX; assay: TGI PK/PD modelling, human HSAX2655 (liposarcoma) PDX rat; type: in vivo
Procedure: as §2

[5] = system: AH1-specific CD8+ T cells; assay: Anti-tumor memory T cell responses: IFN-γ ELISPOT with AH1 peptide and H2Ld-AH1 dextramers on splenocytes; type: cell-based, mouse
Description: Consistent with this, we observed an increase in frequency of AH1-specific CD8^+ T cells in spleens of mice treated with HDM201 or combination of HDM201 with anti-PD1 antibody induced responders as detected by H2Ld-AH1 dextramers. (FIGS. 28 and 29).

[6] = system: p53 knock out Colon 26 clones; assay: p53 KO Colon26 model; type: in vivo, mouse
Procedure: p53 knock out Colon 26 Clones were grown in the presence of 1 μM HDM201 and screened for p53 expression by western blot, loading 40 μg total protein/sample, using an anti p53 antibody (Cell Signaling CST #2524). p53 negative clones were identified, grown without HDM201 for 4 days and then re-treated with 1 μM HDM201 for 24 hours, along with Colon26 parental cells, to monitor p53 pathway’ response. p53 and p21 changes were monitored by western blot and an 84 gene qPCR array was used to additionally confirm pathway activity (RT2 Profiler PCR Array p53 pathway, Cat No. 330231 PAMM-027ZA Qiagen). Select clones were also submitted for RNASeq analysis.
There was no additional benefit observed when the PD-1/PD-L1 axis was blocked (FIG. 30).

[7] = 1A (d 1 Q3 weeks) 12.5 mg (n = 1)
[8] = 1B (d 1, d 8 of 4 w cycle) 120 mg (n = 9)
[9] = 2A (2 weeks on/2 weeks off) 1 mg (n = 1)
[10] = 2C (1 week on/3 weeks off) 15 mg (n = 8)

For `COc1ncc(-c2nc3c(n2C(C)C)[C@H](c2ccc(Cl)cc2)N(c2cc(Cl)cn(C)c2=O)C3=O)c(OC)n1` [HDM201, (S)-5-(5-Chloro-1-methyl-2-oxo-1,2-dihydro-pyridin-3-yl)-6-(4-chloro-phenyl)-2-(2,4-dimethoxy-pyrimidin-5-yl)-1-isopropyl-5,6-dihydro-1H-pyrrolo[3,4-d]imidazol-4-one], the “DLTs (cycle 1)” value ([1]; 1A 25 mg (n = 1)) was 0, the “Hematologic dose limiting toxicities (cycle 2)” value ([1]; 1A 25 mg (n = 1)) was 0 and the “DLTs (cycle 1)” value ([1]; 1A 50 mg (n = 4)) was 0. The “Hematologic dose limiting toxicities (cycle 2)” value ([1]; 1A 50 mg (n = 4)) was 1, the “DLTs (cycle 1)” value ([1]; 1A 100 mg (n = 4)) was 0 and the “Hematologic dose limiting toxicities (cycle 2)” value ([1]; 1A 100 mg (n = 4)) was 0. For the same compound, the “DLTs (cycle 1)” value ([1]; 1A 200 mg (n = 5)) was 0, the “Hematologic dose limiting toxicities (cycle 2)” value ([1]; 1A 200 mg (n = 5)) was 1 and the “DLTs (cycle 1)” value ([1]; 1A 250 mg (n = 6)) was 0. The “Hematologic dose limiting toxicities (cycle 2)” value ([1]; 1A 250 mg (n = 6)) was 1, the “DLTs (cycle 1)” value ([1]; 1A 350 mg (n = 5)) was 2 and the “Hematologic dose limiting toxicities (cycle 2)” value ([1]; 1A 350 mg (n = 5)) was 2. The “DLTs (cycle 1)” value [1, 7] was 0, the “Hematologic dose limiting toxicities (cycle 2)” value [1, 7] was 0 and the “DLTs (cycle 1)” value ([1]; 1B 150 mg (n = 8)) was 1. For the same compound, the “Hematologic dose limiting toxicities (cycle 2)” value ([1]; 1B 150 mg (n = 8)) was 1, the “DLTs (cycle 1)” value ([1]; 1B 200 mg (n = 3)) was 0 and the “DLTs (cycle 1)” value [1, 8] was 0. For the same compound, the “Hematologic dose limiting toxicities (cycle 2)” value [1, 8] was 2, the “DLTs (cycle 1)” value ([1]; 2A 2 mg (n = 2)) was 0 and the “Hematologic dose limiting toxicities (cycle 2)” value ([1]; 2A 2 mg (n = 2)) was 0. The “DLTs (cycle 1)” value ([1]; 2A 4 mg (n = 4)) was 0, the “Hematologic dose limiting toxicities (cycle 2)” value ([1]; 2A 4 mg (n = 4)) was 0 and the “DLTs (cycle 1)” value ([1]; 2A 7.5 mg (n = 4)) was 0. For the same compound, the “Hematologic dose limiting toxicities (cycle 2)” value ([1]; 2A 7.5 mg (n = 4)) was 0, the “DLTs (cycle 1)” value ([1]; 2A 15 mg (n = 4)) was 0 and the “Hematologic dose limiting toxicities (cycle 2)” value ([1]; 2A 15 mg (n = 4)) was 1. For the same compound, the “DLTs (cycle 1)” value ([1]; 2A 20 mg (n = 5)) was 0, the “Hematologic dose limiting toxicities (cycle 2)” value ([1]; 2A 20 mg (n = 5)) was 4 and the “DLTs (cycle 1)” value [1, 9] was 0. The “Hematologic dose limiting toxicities (cycle 2)” value [1, 9] was 0, the “DLTs (cycle 1)” value ([1]; 2C 20 mg (n = 6)) was 0 and the “Hematologic dose limiting toxicities (cycle 2)” value ([1]; 2C 20 mg (n = 6)) was 0. The “DLTs (cycle 1)” value ([1]; 2C 25 mg (n = 5)) was 2, the “Hematologic dose limiting toxicities (cycle 2)” value ([1]; 2C 25 mg (n = 5)) was 0 and the “DLTs (cycle 1)” value [1, 10] was 0. The “Hematologic dose limiting toxicities (cycle 2)” value [1, 10] was 1, the “Median DLT rate, per protocol analysis” value ([1]; BLRM, regimen 1B 120 mg) was 3.5% and the “Median DLT rate, sensitivity analysis” value ([1]; BLRM, regimen 1B 120 mg) was 25.7%. For the same compound, the “RDE for patients with solid tumors” value ([1]; D1 and D8 of each 28 day cycle) was 120 mg, the “DLTs (cycle 1), Total” value ([1]; regimen 1A, N = 26) was 2 and the “Hematologic dose limiting toxicities (cycle 2), Total” value ([1]; regimen 1A, N = 26) was 5. For the same compound, the “dose up to which BLRM (cycle 1 DLT events) supported escalation” value ([1]; regimen 1B) was “up to 400 mg”, the “events of prolonged neutropenia meeting DLT criteria” value ([1]; regimen 1B 150 mg, onset on day 22, lasting 18 days) was “One” and the “DLTs (cycle 1), Total” value ([1]; regimen 1B, N = 20) was 1. For the same compound, the “Hematologic dose limiting toxicities (cycle 2), Total” value ([1]; regimen 1B, N = 20) was 3, the “DLTs (cycle 1), Total” value ([1]; regimen 2A, N = 20) was 0 and the “Hematologic dose limiting toxicities (cycle 2), Total” value ([1]; regimen 2A, N = 20) was 5. For the same compound, the “DLTs (cycle 1), Total” value ([1]; regimen 2C, N = 19) was 2, the “Hematologic dose limiting toxicities (cycle 2), Total” value ([1]; regimen 2C, N = 19) was 1 and the “Dose-limiting toxicities (type)” value ([1]; typically occurring during Cycle 2) was “neutropenia and thrombocytopenia”. The steady-state reached ([2]; daily dosing) was no more than 8 days, the “median time to reach maximum plasma concentrations (Tmax)” value ([2]; dose range 2 to 350 mg) was 2 to 5.8 h and the “accumulation upon daily dosing” value ([2]; human, in vivo) was “limited accumulation”. The “patients with estimated average drug concentration per cycle near or above ~41 ng/mL” value ([2]; regimen 1B 120 mg, compartmental PK modeling) was 7 out of 9, the “Average concentration for tumor stasis” value [3] was roughly 41 ng/mL and the “Average concentration for tumor stasis” value ([3]; listed as NVP-HDM201) was “≈ 41 ng/mL”. The “average concentration for 95% tumor regression” value [3] was 120 ng/mL, the “average concentration for 95% tumor regression” value ([3]; listed as NVP-HDM201) was 125 ng/mL and the “Average concentration for tumor stasis” value [4] was 19 ng/mL. For the same compound, the “Average concentration for tumor stasis” value ([4]; listed as NVP-HDM201) was “≈ 19 ng/mL”, the “frequency of AH1-specific CD8+ T cells in spleens (H2Ld-AH1 dextramers)” value ([5]; responder mice) was “increase” and the “antigen-specific production of IFN-γ by T cells (ELISPOT)” value ([5]; splenocytes of responder mice stimulated with AH1 peptide) was “detected in all responders”. For the same compound, the tumor growth inhibition [6] was “not able to inhibit tumor growth”.
